Measured values published in patent publication US8586625B2, “Derivatives of taxol and closely related compounds” (priority 2008, dated 2013).
≈ marks a conversion by molar mass, not a printed value. Entries after “also recorded” stand apart in the source; their conditions may differ.

Columns and labels:
[1] = system: A549 lung cancer; assay: MTT proliferation assay, in vitro cytotoxicity; assay type: cell-based; conditions: Homo sapiens, FIG. 3e, read-out: Calculated EC50
Description: (§1) Cancer cells, HeLa, Caco-2, PC3 prostate, CAPAN, A549, SKBR3 were maintained in a humidified atmosphere at 37° C. and gassed with 5% CO2 in air in air. The cells were incubated with various concentrations of paclitaxel and PACLP. The in vitro cytotoxicity of the drugs was measured by a proliferation assay utilizing tetrazolium dye, MTT ([3-(4,5-[…])-2,5 diphenyl tetrazolium bromid). The experiments were carried out with cells in the exponential growth phase.
(§2) Results of these experiments are presented in graphs 3a-3f, indicating the IC50, (the concentration found to inhibit about fifty percent of the growth of the cancer cell lines).

[2] = system: CAPAN; assay: MTT proliferation assay, in vitro cytotoxicity; assay type: cell-based; conditions: 72 h, FIG. 3d, read-out: calculated EC50
Description: as §1, §2

[3] = system: Caco-2 carcinoma of the colon; assay: MTT proliferation assay, in vitro cytotoxicity; assay type: cell-based; conditions: Homo sapiens, FIG. 3b, read-out: calculated EC50
Description: as §1, §2

[4] = system: HeLa cell line; assay: MTT proliferation assay, in vitro cytotoxicity; assay type: cell-based; conditions: Homo sapiens, FIG. 3a, read-out: calculated EC50
Description: as §1, §2

[5] = system: PC3 prostate carcinoma; assay: MTT proliferation assay, in vitro cytotoxicity; assay type: cell-based; conditions: FIG. 3c, read-out: calculated EC50
Description: as §1, §2

[6] = system: SKBR3 breast carcinoma; assay: MTT proliferation assay, in vitro cytotoxicity; assay type: cell-based; conditions: Homo sapiens, SK-BR-3, FIG. 3f, read-out: calculated EC50
Description: as §1, §2

[7] = system: hepatocyte cell line HepG2; assay: Toxicity on hepatocyte cell line HepG2 (MTT test); assay type: cell-based; conditions: for CD50 (cytotoxic concentration leading to reduction of 50% of the cell number compared to untreated cells): HepG2, 72 h, MTT test
Description: PACLP and paclitaxel were evaluated in vitro using hepatocyte cell line HepG2. Cells were cultured in 96 well plates at a cell density of 20000 cell/well and treated with increasing concentrations of both PACLP and paclitaxel (0-1000 μM) for 72 h. Control cells were treated with an absolute ethanol, diluted in the same way as the tested substances. Cytotoxicity was measured using the MTT test. All experiments were carried out in triplicates and each test was repeated three times.
CD50 (the cytotoxic concentration leading to reduction of 50% of the cell number compared to untreated cells) was at concentration of 5 μM and 100 μM, and 500 μM for paclitaxel, PACLP, and the solvent, respectively.

[8] = system: endothelial cells of human (H-1044 EC p7 naïve); assay: Effect on endothelial cell proliferation (cell count); assay type: cell-based; conditions: 48 hours, in words
Description: The test was conducted using endothelial cells of human (H-1044 EC p7 naïve). 70,000 cells were grown in each well. After the cells have adhered for 3 hours, the material (paclitaxel or PACLP) was added to the cells. After 48 hours of cell growth the cells were detached by trypsin and counted. The results are set in.

[9] = system: 6 cancer cell lines; assay: In vitro anti-tumor activity on 6 cancer cell lines (overall comparison); assay type: cell-based; conditions: in words
Description: as §1, §2

[10] = system: Balb/c mice; assay: LD50 test using Balb/c mice; assay type: in vivo; conditions: 80-140 mg/kg, observed 4 weeks after injection
Description: Balb/c mice were divided into 9 groups, 8 mice in each group (4 males and 4 females). Group one, the control group, were given 50 μl solvent with 150 μL normal saline. Groups 2, 3, 4 and 5 were given 125, 150, 175, 200 mg/kg of PACLP respectively. Groups 6, 7, 8 and 9 were given 80, 100, 120, 140 mg/kg of paclitaxel respectively. Mice were observed 4 weeks after injection. The results are set in FIG. 6. Most of the animals died within the first week after treatment.

CC(=O)O[C@H]1C(=O)[C@@]2(C)[C@H]([C@H](OC(=O)c3ccccc3)[C@]3(O)C[C@H](OC(=O)[C@H](OC(=O)CCCCC4CCSS4)[C@@H](NC(=O)c4ccccc4)c4ccccc4)C(C)=C1C3(C)C)[C@]1(OC(C)=O)CO[C@@H]1C[C@@H]2O (stereo partly drawn) [PACLP, Paclitaxel-lipoate]
EC50 [1]: 2.5 mg/L (≈ 2.4 µM) | EC50 [2]: 5 mg/L (≈ 4.8 µM) | EC50 [3]: 1.5 mg/L (≈ 1.44 µM) | EC50 [4]: 1.5 mg/L (≈ 1.44 µM) | EC50 [5]: 3.5 mg/L (≈ 3.36 µM) | EC50 [6]: 2 mg/L (≈ 1.92 µM) | CD50 (cytotoxic concentration leading to reduction of 50% of the cell number compared to untreated cells) [7]: 100 µM | cytotoxicity compared to paclitaxel ([7]; hepatocyte cell line HepG2, in words): less cytotoxic | cytotoxicity compared to paclitaxel [8]: less cytotoxic | anti-tumor activity compared to free paclitaxel [9]: greater anti-tumor activity; also recorded: somewhat more effective than paclitaxel

CC(=O)O[C@H]1C(=O)[C@@]2(C)[C@H]([C@H](OC(=O)c3ccccc3)[C@]3(O)C[C@H](OC(=O)[C@H](O)[C@@H](NC(=O)c4ccccc4)c4ccccc4)C(C)=C1C3(C)C)[C@]1(OC(C)=O)CO[C@@H]1C[C@@H]2O [paclitaxel, reference compound]
EC50 [1]: 5.5 mg/L (≈ 6.44 µM) | EC50 [2]: 11 mg/L (≈ 12.9 µM) | EC50 [3]: 9 mg/L (≈ 10.5 µM) | EC50 [4]: 9 mg/L (≈ 10.5 µM) | EC50 [5]: 12 mg/L (≈ 14.1 µM) | EC50 [6]: 19 mg/L (≈ 22.3 µM) | CD50 (cytotoxic concentration leading to reduction of 50% of the cell number compared to untreated cells) [7]: 5 µM | observation before death [10]: swelling and redness before death
